Assay results: patent US9328138B2 (priority 2011, dated 2016)

Assays:
[1] = target: T1, HCV genotype 1b (BK) NS3 modified enzyme with a R155K mutation (Hepatitis C virus genotype 1b, UniProt P26663, R1181K); assay: HCV NS3 protease time-resolved fluorescence (TRF) assay, genotype 1b R155K; type: biochemical; conditions: Ki 1b R155K
T1 construct: HCV genotype 1b (BK) NS3 modified enzyme
Method in brief: (§1)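 Inhibitor titrations are mixed with NS3/NS4A in pH 7.5 HEPES buffer containing 10 mM DTT and 15% glycerol for 10 min before substrate (25 nM final) is added. After 6 h at room temperature, delayed fluorescence is read and fitted to a four-parameter curve for IC50.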

[2] = target: HCV NS3 protease genotype 3a (3A-1) (Hepatitis C virus genotype 3a, UniProt Q81258); assay: HCV NS3 protease time-resolved fluorescence (TRF) assay, genotype 3a; type: biochemical; conditions: Ki 3a
Method in brief: as §1

[3] = first of two values printed in the cell (not explained)
[4] = second of two values printed in the cell (not explained)
[5] = genotype 1b (BK) NS3 R155K, single value

| SMILES | Ki [1, 3] [nM] | Ki [1, 4] [nM] | Ki [2] [nM] | Ki [1, 5] [nM] |
| --- | --- | --- | --- | --- |
| C=C[C@@H]1C[C@]1(NC(=O)[C@@H]1C[C@@H]2CN1C(=O)[C@H](C(C)(C)C)NC(=O)O[C@@H]1C[C@H]1CCCCCc1c(nc3ccccc3c1-c1ccncc1)O2)C(=O)NS(=O)(=O)C1(C)CC1 [Example 244, (1aR,5S,8S,10R,22aR)-5-tert-butyl-N-[(1R,2S)-2-ethenyl-1-{[(1-methylcyclopropyl)sulfonyl]carbamoyl}cyclopropyl]-3,6-dioxo-17-(pyridin-4-yl)-1,1a,3,4,5,6,9,10,18,19,20,21,22,22a-tetradecahydro-8H-7,10-methanocyclopropa[18,19][1,10,3,6]dioxadiazacyclononadecino[11,12-b]quinoline-8-carboxamide] | 1.59 | 1.65 | 296 |  |
| C=CC1C[C@]1(NC(=O)[C@@H]1C[C@@H]2CN1C(=O)[C@H](C1CCCC1)NC(=O)O[C@@H]1CCC[C@H]1CC/C=C/Cc1c(nc3ccccc3c1OCCCN1CCN(C)CC1)O2)C(=O)NS(=O)(=O)C1CC1 (stereo partly drawn) [Example 88, (3aR,7S,10S,12R,21E,24aS)-7-cyclo pentyl-N-{(1R,2S)-1-[(cyclo-propylsulfonyl)carbamoyl]-2-ethenylcyclopropyl}-19-[3-(4-methylpiperazin-1-yl)propoxy]-5,8-dioxo-1,2,3,3a,5,6,7,8,11,12,20,23,24,24a-tetradecahydro-10H-9,12-methano-cyclopenta[18,19][1,10,3,6]dioxa diazacyclononadecino[11,2-b]quinoline-10-carboxamide] |  |  | 4.4 | 0.34 |
| C=C[C@@H]1C[C@]1(NC(=O)[C@@H]1C[C@@H]2CN1C(=O)[C@H](C(C)(C)C)NC(=O)O[C@@H]1C[C@H]1CCCCCc1c(nc3ccccc3c1OCCNC(C)(C)C)O2)C(=O)NS(=O)(=O)C1(C)CC1 [Example 177, (1aR,5S,8S,10R,22aR)-5-tert-butyl-17-[2-(tert-butylamino)ethoxy]-N-[(1R,2S)-2-ethenyl-1-{[(1-methylcyclopropyl)sulfonyl]carbamoyl}cyclopropyl]-3,6-dioxo-1,1a,3,4,5,6,9,10, 18,19,20,21,22,22a-tetradeca hydro-8H-7,10-methanocyclopropa[18,19][1,10,3,6] dioxadiazacyclononadecino[11,12-b] quinoline-8-carboxamide] |  |  | 1.1 | 0.14 |
| C=C[C@@H]1C[C@]1(NC(=O)[C@@H]1C[C@@H]2CN1C(=O)[C@H](C1CCCCC1)NC(=O)O[C@@H]1C[C@H]1CCCCCc1c(nc3c(OC)cccc3c1OCCN1CCOCC1)O2)C(=O)NS(=O)(=O)C1(C)CC1 [Example 128, (1aR,5S,8S,10R,22aR)-5-cyclohexyl-N-[(1R,2S)-2-ethenyl-1-{[(1-methylcyclopropyl)sulfonyl]carbamoyl}cyclopropyl]-13-methoxy-17-[2-(morpholin-4-yl)ethoxy]-3,6-dioxo-1,1a,3,4,5,6,9, 10,18,19,20,21,22,22a-tetradecahydro-8H-7,10-methanocyclopropa [18,19][1,10,3,6]dioxadiaza cyclononadecino[11,12-b]quinoline-8-carboxamide] |  |  | 13 | 0.41 |
| C=C[C@@H]1C[C@]1(NC(=O)[C@@H]1C[C@@H]2CN1C(=O)[C@H](C1(C)CCCCC1)NC(=O)O[C@@H]1C[C@H]1CCCCCc1c(nc3ccccc3c1OCCN1CCOCC1)O2)C(=O)NS(=O)(=O)C1(C)CC1 [Example 123, (1aR,5S,8S,10R,22aR)-N-[(1R,2S)-2-ethenyl-1-{[(1-methylcyclopropyl)sulfonyl]carbamoyl}cyclopropyl]-5-(1-methylcyclohexyl)-17-[2-(morpholin-4-yl)ethoxy]-3,6-dioxo-1,1a,3,4,5,6,9,10,18,19,20,21,22,22a-tetradecahydro-8H-7,10-methanocyclopropa[18,19] [1,10,3,6]dioxadiazacyclononadecino [11,12-b]quinoline-8-carboxamide] |  |  | 6.1 | 0.49 |
| C=C[C@@H]1C[C@]1(NC(=O)[C@@H]1C[C@@H]2CN1C(=O)[C@H](C1CCCCC1)NC(=O)O[C@@H]1C[C@H]1CCCCCc1c(nc3ccccc3c1OC1CCN(C)CC1)O2)C(=O)NS(=O)(=O)C1(C)CC1 [Example 211, (1aR,5S,8S,10R,22aR)-5-cyclohexyl-N-[(1R,2S)-2-ethenyl-1-{[(1-methylcyclopropyl)sulfonyl]carbamoyl}cyclopropyl]-17-[(1-methylpiperidin-4-yl)oxy]-3,6-dioxo-1,1a,3,4,5,6,9,10,18,19,20,21,22,22a-tetradecahydro-8H-7,10-methanocyclopropa[18,19][1,10,3,6] dioxadiazacyclononadecino[11,12-b]quinoline-8-carboxamide] |  |  | 0.3 | 0.033 |
| C=C[C@@H]1C[C@]1(NC(=O)[C@@H]1C[C@@H]2CN1C(=O)[C@H](C(C)(C)C)NC(=O)O[C@@H]1C[C@H]1CCCCCc1c(nc3ccccc3c1OCCCN1CCCC1=O)O2)C(=O)NS(=O)(=O)C1(C)CC1 [Example 118, (1aR,5S,8S,10R,22aR)-5-tert-butyl-N-[(1R,2S)-2-ethenyl-1-{[(1-methylcyclopropyl)sulfonyl]carbamoyl}cyclopropyl]-3,6-dioxo-17-[3-(2-oxopyrrolidin-1-yl)propoxy]-1,1a,3,4,5,6,9,10,18,19,20,21,22,22a-tetradeca hydro-8H-7,10-methano cyclopropa[18,19][1,10,3,6] dioxadiazacyclononadecino [11,12-b]quinoline-8-carboxamide] |  |  | 0.89 | 0.066 |
| C=C[C@@H]1C[C@]1(NC(=O)[C@@H]1C[C@@H]2CN1C(=O)[C@H](C(C)(C)C)NC(=O)O[C@@H]1C[C@H]1CCCCCc1c(nc3ccccc3c1O[C@@H]1C[C@H]3C[C@@H]1CN3CCOC)O2)C(=O)NS(=O)(=O)C1(C)CC1 [Example 231, (1aR,5S,8S,10R,22aR)-5-tert-butyl-N-[(1R,2S)-2-ethenyl-1-{[(1-methylcyclopropyl)sulfonyl]carbamoyl}cyclopropyl]-17-{[(1R,4R,5R)-2-(2-methoxyethyl)-2-azabicyclo[2.2.1]hept-5-yl]oxy}-3,6-dioxo-1,1a,3,4,5,6,9,10,18,19,20,21,22,22a-tetradecahydro-8H-7,10-methanocyclopropa[18,19][1,10,3,6] dioxadiazacyclononadecino[11,12-b]quinoline-8-carboxamide] |  |  | 1.8 | 0.13 |
| C=C[C@@H]1C[C@]1(NC(=O)[C@@H]1C[C@@H]2CN1C(=O)[C@H](C(C)(C)C)NC(=O)O[C@@H]1C[C@H]1CCCCCc1c(nc3ccccc3c1OCCc1ccccn1)O2)C(=O)NS(=O)(=O)C1(C)CC1 [Example 217, (1aR,5S,8S,10R,22aR)-5-tert-butyl-N-[(1R,2S)-2-ethenyl-1-{[(1-methylcyclopropyl)sulfonyl]carbamoyl}cyclopropyl]-3,6-dioxo-17-[2-(pyridin-2-yl)ethoxy]-1,1a,3,4,5,6,9,10,18,19,20,21,22,22a-tetradecahydro-8H-7,10-methanocyclopropa[18,19][1,10,3,6] dioxadiazacyclononadecino[11,12-b]quinoline-8-carboxamide] |  |  | 7.1 | 0.27 |
| C=C[C@@H]1C[C@]1(NC(=O)[C@@H]1C[C@@H]2CN1C(=O)[C@H](C(C)(C)C)NC(=O)O[C@@H]1C[C@H]1CCCCCc1c(nc3ccccc3c1OC1CC3CCC(C1)N3CC(F)(F)F)O2)C(=O)NS(=O)(=O)C1(C)CC1 (stereo partly drawn) [Example 275, potassium {[(1R,2S)-1-({[(1aR,5S,8S,10R,22aR)-5-tert-butyl-3,6-dioxo-17-{[8-(2,2,2-trifluoroethyl)-8-azabicyclo[3.2.1]oct-3-yl]oxy}-1,1a,3,4,5,6,9,10,18,19,20,21,22,22a-tetradecahydro-8H-7,10-methanocyclopropa[18,19][1,10,3,6]dioxadiazacyclononadecino[11,12-b]quinolin-8-yl]carbonyl}amino)-2-ethenylcyclopropyl]carbonyl}[(1-methylcyclopropyl)sulfonyl]azanide] | 0.11 | 1.15 | 16 |  |
| C=C[C@@H]1C[C@]1(NC(=O)[C@@H]1C[C@@H]2CN1C(=O)[C@H](C(C)(C)C)NC(=O)O[C@@H]1C[C@H]1CCCCCc1c(nc3ccccc3c1OCCCN1CCCC1)O2)C(=O)NS(=O)(=O)C1(C)CC1 [Example 117, (1aR,5S,8S,10R,22aR)-5-tert-butyl-N-[(1R,2S)-2-ethenyl-1-{[(1-methylcyclopropyl)sulfonyl]carbamoyl}cyclopropyl]-3,6-dioxo-17-[3-(pyrrolidin-1-yl)propoxy]-1,1a,3,4,5,6,9,10,18,19,20,21,22,22a-tetradeca hydro-8H-7,10-methano cyclopropa[18,19][1,10,3,6] dioxadiazacyclononadecino [11,12-b]quinoline-8-carboxamide] |  |  | 0.93 | 0.08 |
| C=C[C@@H]1C[C@]1(NC(=O)[C@@H]1C[C@@H]2CN1C(=O)[C@H](C(C)(C)C)NC(=O)O[C@@H]1C[C@H]1CCCCCc1c(nc3cc(C(F)(F)F)ccc3c1OCCN1CCOCC1)O2)C(=O)NS(=O)(=O)C1(C)CC1 [Example 129, (1aR,5S,8S,10R,22aR)-5-tert-butyl-N-[(1R,2S)-2-ethenyl-1-{[(1-methylcyclopropyl)sulfonyl]carbamoyl}cyclopropyl]-17-[2-(morpholin-4-yl)ethoxy]-3,6-dioxo-14-(trifluoromethyl)-1,1a,3,4,5,6,9,10,18,19,20,21,22,22a-tetradecahydro-8H-7,10-methanocyclopropa[18,19][1,10,3,6] dioxadiazacyclononadecino[11,12-b] quinoline-8-carboxamide] |  |  | 8.7 | 0.51 |
